Test results from patent US20150119267A1, “INHIBITION OF COLONY STIMULATING FACTOR-1 RECEPTOR SIGNALING FOR THE TREATMENT OF BRAIN CANCER” (SLOAN-KETTERING INSTITUTE FOR CANCER RESEARCH, priority 2012, published 2015).
Entries after “also recorded” stand apart in the source; their conditions may differ.

Columns and labels:
[1] = tested on: secondary neurospheres from PDG tumors; experiment: Secondary neurosphere formation assay; format: cell-based, mouse; settings: concentrations up to 6700 nM
Description: (§1) For neurosphere formation the cell pellet was resuspended in neurosphere media consisting of mouse NSC Basal Media, NSC proliferation supplements, 10 ng/ml EGF, 20 ng/ml basic-FGF and 1 mg/ml Heparin (Stem Cell Technologies). Fresh media was added every 72 hours for 2 weeks. Primary neurospheres were collected, mechanically disaggregated to a single cell suspension and propagated by serial passaging. To generate glioma cell lines, secondary neurospheres were dissociated to single cell suspensions and cultivated in DMEM+10% FBS as a monolayer (10). Multiple glioma cell lines were derived from independent mice, denoted GBM1-4 herein. Glioma cells were infected with a pBabe-H2B-mCherry construct as described previously (11).
Primary neurospheres were disaggregated to a single cell suspension and 5×10^3 cells were plated in a 6 well plate in neurosphere media in the presence of the CSF-1R inhibitor or DMSO as vehicle. Media was changed every 48 hours. Secondary neurosphere formation was assayed by counting the number of neurospheres obtained after 2 weeks.

Ink4a/Arf−/− BMDMs = experiment: MTT assay, Nestin-Tv-a;Ink4a/Arf−/− BMDMs; format: cell-based, mouse
Description: (§2) Cell growth rate was determined using the MTT cell proliferation kit (Roche). […] Media was changed every 48 hours. BMDM and CRL-2467 cells were supplemented with 10 ng/ml and 30 ng/ml recombinant mouse CSF-1 respectively unless otherwise indicated. Ten μl of MTT labeling reagent was added to each well and then incubated for 4 hours at 37° C., followed by the addition of 100 μl MTT solubilization reagent overnight. The mixture was gently resuspended and absorbance was measured at 595 nm and 750 nm on a SPECTRAMAX 340 pc plate reader (Molecular Devices).

PDG tumor cell lines = experiment: MTT assay, PDG tumor cell lines; format: cell-based, mouse; settings: concentrations up to 6700 nM
Description: as §1, §2

[2] = tested on: glioma cells co-cultured with BMDMs; experiment: Glioma cell / BMDM co-culture cell cycle analysis; format: cell-based, mouse; settings: 670 nM BLZ945, 48 hours
Description: Media that had been conditioned by glioma tumor cell lines grown in serum free media for 24 hours was passed through 0.22 μm filters to remove cellular debris, and is referred to herein as glioma cell-conditioned media (GCM). GCM was used to stimulate differentiated C57BL/6 WT or β-actin-GFP^+ BMDMs. Control macrophages received fresh media containing 10% FBS and 10 ng/ml recombinant mouse CSF-1.
Following collection of trypsinized co-cultured cells, wells were rinsed in additional media and this volume was collected to ensure harvesting of all macrophages, which adhered tightly to cell culture dishes. Samples were then washed once with FACS buffer, followed by incubation for 10 minutes at room temperature in permeabilizing buffer (10 mM PIPES, 0.1 M NaCl, 2 mM MgCl2, 0.1% Triton X-100, pH 6.8) containing 0.1 mg DAPI (Invitrogen). After acquisition on an LSR II flow cytometer (BD) using a UV laser (350-360 nm), cell cycle status of glioma tumor cells was analyzed using the Flow Jo Dean-Jett-Fox program for cell cycle analysis.

>200 kinases = experiment: biochemical kinase panel; settings: read-out: biochemical IC50 values for >200 kinases tested; except cKIT and PDGFRβ; data not shown
U-87 MG glioma cell line = experiment: MTT assay, U-87 MG; format: cell-based, human; settings: concentrations up to 6700 nM
Description: U-87 MG (HTB-14) glioma and CRL-2467 microglia cell lines were purchased from ATCC. The U-87 MG cell line was cultured in DMEM+10% FBS. The CRL-2467 cell line was cultured in DMEM+10% FBS with 30 ng/ml recombinant mouse CSF-1.
as §2

established PDG gliomas = experiment: Short-term 7 day trial on established tumors (MRI, histology); format: in vivo, mouse; settings: for Apoptosis (% CC3+) / Macrophages (% CD68+) / Phagocytic Capacity / Proliferation (% BrdU+Olig2+) / Total DAPI+ Cells / Tumor Cells (% Olig2+) / Vasculature (CD31 MVD): relative to vehicle
[3] = tested on: CSF1-dependent cell proliferation; experiment: CSF1-dependent cell proliferation; format: cell-based; settings: read-out: inhibits CSF1-dependent cell proliferation

CNC(=O)c1cc(Oc2ccc3nc(N[C@@H]4CCCC[C@H]4O)sc3c2)ccn1 [BLZ945]
tumor neurosphere formation (number or size of secondary neurospheres) [1]: no effect; also recorded: does not affect the number or size
BMDM survival (Ink4a/Arf−/− BMDMs): blocked the survival
proliferation of PDG tumor cell lines (PDG tumor cell lines): no effect
increase in tumor cell cycle entry with GCM-preconditioned BMDMs [2]: blocked
IC50 (>200 kinases): > 10 µM
U-87 MG human glioma cell proliferation (U-87 MG glioma cell line): no effect
Apoptosis (% CC3+) (established PDG gliomas; BLZ945, Day 3): +17-fold
Macrophages (% CD68+) (established PDG gliomas; BLZ945, Day 3): +3-fold
Phagocytic Capacity (established PDG gliomas; BLZ945, Day 3): +11.5-fold
Proliferation (% BrdU+Olig2+) (established PDG gliomas; BLZ945, Day 3): −91%
Total DAPI+ Cells (established PDG gliomas; BLZ945, Day 3): −72%
Tumor Cells (% Olig2+) (established PDG gliomas; BLZ945, Day 3): −27%
Apoptosis (% CC3+) (established PDG gliomas; BLZ945, Day 7): +6-fold
Macrophages (% CD68+) (established PDG gliomas; BLZ945, Day 7): +2-fold
Phagocytic Capacity (established PDG gliomas; BLZ945, Day 7): +5.0-fold
Proliferation (% BrdU+Olig2+) (established PDG gliomas; BLZ945, Day 7): −67%
Total DAPI+ Cells (established PDG gliomas; BLZ945, Day 7): −80%
Tumor Cells (% Olig2+) (established PDG gliomas; BLZ945, Day 7): −77%
Vasculature (CD31 MVD) (established PDG gliomas; BLZ945, Day 7): −17%
Tumor Volume (Day −1 vs Day 6) (established PDG gliomas; BLZ945, Day 7, start 4.5-40 mm3): +0.68%
Apoptosis (% CC3+) (established PDG gliomas; BLZ945 Large, Day 3): +9-fold
Macrophages (% CD68+) (established PDG gliomas; BLZ945 Large, Day 3): +2-fold
Phagocytic Capacity (established PDG gliomas; BLZ945 Large, Day 3): +7.1-fold
Proliferation (% BrdU+Olig2+) (established PDG gliomas; BLZ945 Large, Day 3): −98%
Total DAPI+ Cells (established PDG gliomas; BLZ945 Large, Day 3): −40%
Tumor Cells (% Olig2+) (established PDG gliomas; BLZ945 Large, Day 3): −14%
Apoptosis (% CC3+) (established PDG gliomas; BLZ945 Large, Day 7): +2-fold
Macrophages (% CD68+) (established PDG gliomas; BLZ945 Large, Day 7): +4-fold
Phagocytic Capacity (established PDG gliomas; BLZ945 Large, Day 7): +6.0-fold
Proliferation (% BrdU+Olig2+) (established PDG gliomas; BLZ945 Large, Day 7): −94%
Total DAPI+ Cells (established PDG gliomas; BLZ945 Large, Day 7): −65%
Tumor Cells (% Olig2+) (established PDG gliomas; BLZ945 Large, Day 7): −73%
Vasculature (CD31 MVD) (established PDG gliomas; BLZ945 Large, Day 7): −67%
Tumor Volume (Day −1 vs Day 6) (established PDG gliomas; BLZ945 Large, Day 7, start >40 mm3): −24.3%
mice with >30% reduction in tumor volume (partial response, RECIST) (established PDG gliomas; BLZ945 Large, tumors >40 mm3, 7 day trial): 6 of 18
reduction of tumor cell proliferation (established PDG gliomas; all groups and time points): 67-98%
treated mice exhibiting a tumor response (histology) (established PDG gliomas; already evident at d3): 100%
average blood vessel length (established PDG gliomas; both treatment groups compared to vehicle): decreased
average density of Olig2+ tumor cells, of total cells (established PDG gliomas; by d7, both CSF-1R inhibitor groups): < 20%
TAM numbers in tumors (established PDG gliomas; compared to vehicle): did not affect TAM numbers
increase in apoptosis (established PDG gliomas; d3): 9-to 17 fold
Iba1+ macrophages that are CSF-1R+ within the tumor (established PDG gliomas; d7): no significant differences
immune cell infiltration, comparisons between treatment groups (established PDG gliomas; day 7, flow cytometry): not significant
microglia in adjacent normal brain (established PDG gliomas; mouse, in vivo): evident microglia depletion
pericyte coverage of the vessels (established PDG gliomas; mouse, in vivo): no significant differences
tumor growth (MRI tumor volume) (established PDG gliomas; starting tumor volume 4.5-40 mm3, 7 day trial): significantly halted tumor growth
increase in Olig2+CC3+ cells engulfed by CD11b+ macrophages (established PDG gliomas; treated groups): 2 to 4 fold
increased phagocytic capacity of macrophages (established PDG gliomas; treated groups): 5 to 11.5 fold
IC50 [3]: 0.067 µM
